Each structure is given as a SMILES string. Counter-ions that a name gives are not always drawn.

For orientation: IC50 means the point on the concentration scale where inhibition reaches its midpoint. A higher IC50 goes with weaker potency. For orientation: % Inhibition means the relative decrease from the control value, in per cent.

In assay [1] the test system is LTC4 induced contractions of the guinea pig ileum. As to the kind of experiment: Guinea Pig Ileum Test: inhibition of LTC4-induced guinea pig smooth muscle contractions. Format: cell-based. The note with it: Cavia porcellus, 6 nanomoles LTC4. The protocol: Four replicate, small pieces of guinea pig ileum were suspended in Kreb's physiological salt solution in a 10 ml tissue bath to a gram tension of approximately 1.0. These pieces of tissue were then chemically stimulated with 6 microliters of purified leukotriene C4 (LTC4) yielding a final concentration in the bath of 6 nanomoles. Responses (tissue contraction) were measured isometrically using a Harvard transducer and a Beckman recorder. Upon addition of the LTC4, the tissue was allowed to sit for approximately 15-30 minutes to reach maximal stimulation. The test compound dissolved in a maximum volume of 100 microliters of either saline, dimethylsulfoxide or ethanol was then added to the tissue preparation and the change in gram tension was recorded.

Assay [2] deals with Active Anaphylaxis Response in Male, Sprague Dawley Rats. The assay is described as follows: Rat Anaphylaxis Test (active anaphylaxis, paw edema). Format: in vivo. The settings on record: for Paw Volume Mean ± S.E.: in mmHg (unit assumed). How it is done: In the rat anaphylaxis test, groups consisting of 15-20 rats are intraperitoneally sensitized on day zero with 500 μg of bovine serum albumin-absorbed alum admixed with 2×10^10 killed Bordatella pertussis vaccine organisms. Fourteen days later, the test compound suspended in 0.5 to 1.0 ml of 1% Cleargel or saline (0.85% NaCl in H2 O) is administered ip or po and, one hour later, the right hind paw is injected subcutaneously with 100 μg of bovine serum albumin dissolved in 0.1 ml of saline. The paw volume is measured using a mercury plethysmometer prior to drug administration and 90 minutes post antigenic challenge. The present inhibition of edema is calculated as the difference in volume between the control and drug treated groups, divided by the control volume, and then multiplied times 100. The positive control drug, theophylline (90 mg/kg, po) is included in each assay. Statistical analysis of the data is done using an analysis of variance program. See Tables 2 and 3 for results obtained with this test.
In Tables 2 and 3, and elsewhere in this application, PR 948-257C stands for trans-6-[2-(4-methoxyphenyl)ethenyl]-2-[3-(dimethylamino)propyl]-phthalazin-1(2H)-one hydrobromide.

The subject of the next assay is serotonin. The assay is described as follows: Rat Allergic Mediator Induced Dermal Vascular Permeability Test, serotonin challenge. The format is in vivo. How it is done:
(§1) Ten minutes later, the animals are challenged by intradermally injecting 0.1 ml of a water solution of either serotonin (1 μg/ml), histamine (20 μg/ml) or bradykinin (10 μg/ml) into separate sites on the back. Five minutes following challenge the animals are killed, the skin retracted, and the mean diameter of the blue wheal and flare reaction is calculated as the difference in mean diameter between a saline control and the drug treated group, divided by the control diameter, and then multiplied times 100. Statistical analysis of the data is done using a Student T-test program. See Tables 4 (ip administration of test compound) and 5 (po administration of test compound) for results obtained with the rat allergic mediator induced dermal vascular permeability test. (Set: Serotonin; His: histamine; Bk: bradykinin)

Another assay deals with histamine. The assay is described as follows: Rat Allergic Mediator Induced Dermal Vascular Permeability Test, histamine challenge. Format: in vivo. How it is done:
as §1, with “See Tables 4 (ip administration of test compound) and 5 (po administration of test compound) for results obtained with the rat allergic mediator induced dermal vascular permeability test.” left out

In a further assay the test system is bradykinin. The assay is described as follows: Rat Allergic Mediator Induced Dermal Vascular Permeability Test, bradykinin challenge. The format is in vivo. The protocol: as §1
The mark [3] stands for this setting: Table 2, first group set, 50 mg/kg ip.
[4] abbreviates: Table 2, first group set, 75 mg/kg ip.
The mark [5] stands for this setting: Table 2, first group set, 100 mg/kg ip.
Where [6] appears, read: Table 2, second group set, 6.25 mg/kg ip.
Setting [7] is: Table 2, second group set, 12.5 mg/kg ip.
[8] abbreviates: Table 2, second group set, 25 mg/kg ip.
[9] abbreviates: Table 2, third group set, 2.5 mg/kg ip.
Where [10] appears, read: Table 2, third group set, 4 mg/kg ip.
Where [11] appears, read: Table 2, third group set, 6 mg/kg ip.
[12] abbreviates: Table 2, first group set, 90 mg/kg po, N 17.
[13] abbreviates: Table 2, second group set, 90 mg/kg po, N 20.
Where [14] appears, read: Table 2, third group set, 90 mg/kg po, N 29.
Where [15] appears, read: Table 4 (ip administration of test compound), 1 mg/kg.
The mark [16] stands for this setting: Table 5 (po administration of test compound), 1 mg/kg.

`COc1ccc(/C=C/c2ccc3c(=O)n(CCN4CCOCC4)ncc3c2)cc1` [Example IV, Trans-6-[2-(4-methoxyphenyl)ethenyl]-2-(2-morpholinoethyl)phthalazin-1(2H)-one hydrobromide]: the IC50 in assay [1] worked out at 0.1 µM.

In assay [1], `Br.COc1ccc(/C=C/c2ccc3c(=O)n(CCCN(C)C)ncc3c2)cc1` [Example XII, Trans-6-[2-(4-methoxyphenyl)ethenyl]-2-[3-(dimethylamino)propyl]-phthalazin-1(2H)-one hydrobromide] displayed an IC50 of 13.6 µM. Besides, the “% Inhibition” value is given as 56% in assay [2] (setting [3]); 83% in assay [2] (setting [4]); 91% in assay [2] (setting [5]); 48% in assay [2] (setting [6]); 52% in assay [2] (setting [7]); 55% in assay [2] (setting [8]). Besides, the “% Inhibition” value in assay [2] (setting [9]) is given as “+11%”; in assay [2] (setting [10]), “+14%”; in assay [2] (setting [11]), 12%; in assay [2] (Table 3, 50 mg/kg po) it was 14%; in assay [2] (Table 3, 75 mg/kg po), 37%; in assay [2] (Table 3, 100 mg/kg po), 54%. Besides, the “Paw Volume Mean ± S.E.” value in assay [2] (setting [3]) stood at 1.7 ± 1.3; in assay [2] (setting [4]), 0.7 ± 0.8; in assay [2] (setting [5]) it was 0.4 ± 0.8; in assay [2] (setting [6]), 2.2 ± 1.9; in assay [2] (setting [7]), 2.1 ± 1.8; in assay [2] (setting [8]) it was 1.9 ± 1.4. Besides, the “Paw Volume Mean ± S.E.” value in assay [2] (setting [9]) is 4.7 ± 2.8; in assay [2] (setting [10]) it was 4.9 ± 2.3; in assay [2] (setting [11]) it was 3.7 ± 2.6. For the same molecule, the “Paw Volume ± S.E.” value is reported as 3.10 ± .55 mm of Hg in assay [2] (Table 3, 50 mg/kg po); 2.26 ± .32 mm of Hg in assay [2] (Table 3, 75 mg/kg po); 1.65 ± .36 mm of Hg in assay [2] (Table 3, 100 mg/kg po). The “% Inhibition, Ser” value was 26.1% in the assay with serotonin (Table 4, 12.5 mg/kg ip); 51.4% with serotonin (Table 4, 25 mg/kg ip); 68.5% in the assay with serotonin (Table 4, 50 mg/kg ip); 23.3% in the assay on serotonin (Table 5, 12.5 mg/kg po); 42.7% with serotonin (Table 5, 25 mg/kg po); 61.1% in the assay on serotonin (Table 5, 50 mg/kg po). Also, the “Wheal Measurement, Ser” value with serotonin (Table 4, 12.5 mg/kg ip) is listed as 8.2 mm; with serotonin (Table 4, 25 mg/kg ip), 5.4 mm; with serotonin (Table 4, 50 mg/kg ip), 3.5 mm; in the assay on serotonin (Table 5, 12.5 mg/kg po), 7.9 mm; in the assay on serotonin (Table 5, 25 mg/kg po), 5.9 mm; in the assay with serotonin (Table 5, 50 mg/kg po), 4.0 mm. The “% Inhibition, His” value in the assay with histamine (Table 4, 12.5 mg/kg ip) is recorded as 26.8%; in the assay on histamine (Table 4, 25 mg/kg ip) it was 50.0%; with histamine (Table 4, 50 mg/kg ip), 75.9%; with histamine (Table 5, 12.5 mg/kg po), 17%; in the assay with histamine (Table 5, 25 mg/kg po) it was 57%; in the assay with histamine (Table 5, 50 mg/kg po), 71%. The “Wheal Measurement, His” value in the assay with histamine (Table 4, 12.5 mg/kg ip) came out at 8.2 mm; in the assay with histamine (Table 4, 25 mg/kg ip), 5.6 mm; with histamine (Table 4, 50 mg/kg ip) it was 2.7 mm; in the assay on histamine (Table 5, 12.5 mg/kg po), 8.3 mm; with histamine (Table 5, 25 mg/kg po) it was 4.3 mm; in the assay on histamine (Table 5, 50 mg/kg po), 2.9 mm. For the same molecule, the “% Inhibition, Bk” value came to 32.1% in the assay on bradykinin (Table 4, 12.5 mg/kg ip); 47.7% in the assay on bradykinin (Table 4, 25 mg/kg ip); 74.3% in the assay with bradykinin (Table 4, 50 mg/kg ip); 12.1% in the assay on bradykinin (Table 5, 12.5 mg/kg po); 48.4% with bradykinin (Table 5, 25 mg/kg po); 63.8% in the assay on bradykinin (Table 5, 50 mg/kg po). Further, the “Wheal Measurement, Bk” value with bradykinin (Table 4, 12.5 mg/kg ip) amounted to 7.4 mm; in the assay on bradykinin (Table 4, 25 mg/kg ip), 5.7 mm; in the assay on bradykinin (Table 4, 50 mg/kg ip), 2.8 mm; in the assay on bradykinin (Table 5, 12.5 mg/kg po), 8.0 mm; in the assay with bradykinin (Table 5, 25 mg/kg po), 4.7 mm; with bradykinin (Table 5, 50 mg/kg po) it was 3.3 mm.

Consider `Cn1c(=O)c2[nH]cnc2n(C)c1=O` [Theophylline, theophylline, reference compound], for which the “% Inhibition” value in assay [2] (setting [12]) turned out to be 76%; in assay [2] (setting [13]), 92%; in assay [2] (setting [14]), 87%; in assay [2] (Table 3, 90 mg/kg po), 82%. For the same molecule, the “Paw Volume Mean ± S.E.” value in assay [2] (setting [12]) was found to be 0.9 ± 0.7; in assay [2] (setting [13]) it was 0.4 ± 0.6; in assay [2] (setting [14]) it was 0.5 ± 0.5. For the same molecule, in assay [2] (Table 3, 90 mg/kg po), the “Paw Volume ± S.E.” value is reported as 0.65 ± .2 mm of Hg.

For the molecule `CSc1ccc(/C=C/c2ccc3c(=O)n(CCCN(C)C)ncc3c2)cc1` [Example XI, Trans-6-[2-[4-(methylthio)phenyl]ethenyl]-2-[3-(dimethylamino)propyl]phthalazin-1(2H)-one], the midpoint of inhibition in assay [1], the IC50, lay at 10 µM.

Consider `COc1ccc(/C=C/c2ccc3c(=O)n(CCCCN(C)C)ncc3c2)cc1` [Example IX, Trans-6-[2-(4-methoxyphenyl)ethenyl]-2-[4-dimethylamino)butyl]phthalazin-1(2H)-one bromide], for which, in assay [1], the IC50 is 10 µM. This counts as double-digit micromolar.

The molecule `COc1ccc(/C=C\c2ccc3c(=O)n(CCCN(C)C)ncc3c2)cc1` [Example X, Cis-6-[2-(4-methoxyphenyl)ethenyl]-2-[3-dimethylaminopropyl]phthalazin-1(2H)-one cyclohexylsulfamate] showed a half-maximal inhibitory concentration (IC50) in assay [1] of 10.5 µM.

The molecule `COc1ccc(/C=C/c2ccc3c(=O)n(CCCN4CCCCC4)ncc3c2)cc1` [Example II, Trans-6-[2-(4-methoxyphenyl)ethenyl]-2-(3-piperidinopropyl)phthalazin-1(2H)-one hydrobromide] came in with an IC50 in assay [1] of 3.4 µM.

With `COc1ccc(/C=C/c2ccc3c(=O)n(CCN(C)C)ncc3c2)cc1` [Example III, Trans-6-[2-(4-methoxyphenyl)ethenyl]-2-[2-(dimethylamino)ethyl]-phthalazin-1(2H)-one hydrobromide], the IC50 in assay [1] was found to be 16.6 µM. This IC50 is about 4.9-fold higher than that of the molecule before.

`CN1CCC(=C2c3ccccc3C=Cc3ccccc32)CC1` [Cyproheptadine, cyproheptadine, reference compound]: in the assay with serotonin (setting [15]), the “% Inhibition, Ser” value came out at 74.8% and the “Wheal Measurement, Ser” value stood at 2.8 mm. Further, in the assay on serotonin (setting [16]), the “% Inhibition, Ser” value was 95.1% and the “Wheal Measurement, Ser” value is recorded as 0.5 mm. In the assay with bradykinin (setting [15]), the “% Inhibition, Bk” value was found to be 60.6% and the “Wheal Measurement, Bk” value is listed as 4.3 mm. For the same molecule, in the assay on bradykinin (setting [16]), the “% Inhibition, Bk” value was 86.8% and the “Wheal Measurement, Bk” value worked out at 1.2 mm.

Consider `COc1ccc(CCc2ccc3c(=O)n(CCCN(C)C)ncc3c2)cc1` [Example VI, 6-[2-(4-methoxyphenyl)ethyl]-2-[3-(dimethylamino)propyl]phthalazin-1(2H)-on], for which, in assay [1], the concentration for half-maximal inhibition (IC50) came to 16.8 µM.

`CN(C)CCn1ncc2cc(/C=C/c3ccc(O)cc3)ccc2c1=O` [Example XIV, Trans-6-[2-(4-Hydroxyphenyl)ethenyl]-2-(2-dimethylaminoethyl)-1(2H)-phthalazinone hydrochloride] registered a concentration for half-maximal inhibition (IC50) in assay [1] of 31.6 µM.

These data come from patent publication US4769369A, “Anti-allergy 1(2H)-phthalazinones” (Pennwalt Corporation, priority 1986, dated 1988).
